In patent publication US20240009277A1, “POLYPEPTIDES FOR USE IN THE TREATMENT AND PREVENTION OF NEURODEGENERATIVE DISEASES” (IMMUNE SYSTEM KEY LTD., priority 2020, published 2024):
Non-standard residues stand in square brackets, D forms with d. Residues, ends and D or L forms follow the SMILES beside them. No end group written: not given here.

Test: Blood Brain Barrier (BBB) penetration assay, ELISA of spinal fluid after I.P. injection
Format: in vivo, mice
Settings: for level of the polypeptide in mice brain following injection: I.P. 60 mg/kg in 5% mannitol, spinal fluid collected after 1 hour, ELISA, compared to 5% mannitol control
Method: ICR female mice having initial body weight of 20-22 grams were used (Envigo).
A control group of 6 mice was injected intraperitoneally (I.P.) with 5% mannitol solution and another group of 6 mice was injected I.P. with the polypeptide dTCApFs (also termed herein Nerofe, at 60 mg/kg) in a 5% mannitol solution. Spinal fluid was collected after the injection (1 hour) and subjected to ELISA analysis of dTCApFs (Nerofe), as detailed below.
Mice were injected with 60 mg/kg D-amino acid dTCApFs (Nerofe), and cerebrospinal fluid (about 10 μl) and serum were collected after 1 hr, and frozen. A calibration curve was prepared by serial dilutions of the polypeptide in PBS (Biological industries, 02-023-5A) as noted in table 1 below.
Next, the cerebrospinal samples were thawed and kept on ice, and then diluted in 220 μl PBS. Sample loading was next performed by loading 100 μl duplicates of each sample and of the standard in a Maxisorp 96-wells plate (NUNC, F96 Maxisorp, 442404). The plate was sealed and incubated at 4° C. overnight with gentle shaking. The plate was washed by removing the liquid and washing the plate four (4) times using a multi-pipette or an automated washer with 300 μl 0.05% TW-20 (Amresco, 0777-1L) in PBS. The samples were blocked by diluting 5% BSA (MP biomedicals, 160069) in PBS. Then, 300 μl of the blocking buffer were loaded in each well and the plate was incubated at room temperature (R.T.) for 1 hour with gentle shaking. The Plates were washed again, as described above.
Detection was performed by diluting the first antibody according to table 1 below in diluent (0.05% TW-20, 0.1% BSA in PBS). Then, 100 μl of detection antibody were loaded into each well and the plate was incubated at R.T. for 2:00 hours with gentle shaking. The plate was washed again as detailed above. […]
Development was performed by adding 100 μl TMB (Milipore, ES001-500ML) to each well, and waiting for blue color development, then adding 100 μl 2N H2SO4 (Frutarom, 5552540). Plate reading was performed in a microplate reader, by checking the wells absorbance at 450 nm. […]

| Compound | level of the polypeptide in mice brain following injection | penetration ability of the BBB (mice, I.P. 60 mg/kg) |
| --- | --- | --- |
| WWTFFLPSTLWERK [L-amino acid polypeptide, Trp Trp Thr Phe Phe Leu Pro Ser Thr Leu Trp Glu Arg Lys, reference compound] | changed insignificantly |  |
| CC(C)C[C@@H](NC(=O)[C@H](NC(=O)[C@@H](CO)NC(=O)[C@H]1CCCN1C(=O)[C@@H](CC(C)C)NC(=O)[C@@H](Cc1ccccc1)NC(=O)[C@@H](Cc1ccccc1)NC(=O)[C@H](NC(=O)[C@@H](Cc1c[nH]c2ccccc12)NC(=O)[C@H](N)Cc1c[nH]c2ccccc12)[C@H](C)O)[C@H](C)O)C(=O)N[C@H](Cc1c[nH]c2ccccc12)C(=O)N[C@H](CCC(=O)O)C(=O)N[C@H](CCCNC(=N)N)C(=O)N[C@H](CCCCN)C(=O)O [dTCApFs, Trp Trp Thr Phe Phe Leu Pro Ser Thr Leu Trp Glu Arg Lys] (H-[dW][dW][dT][dF][dF][dL][dP][dS][dT][dL][dW][dE][dR][dK]-OH; N-terminus and C-terminus assumed) | dramatically increased | good penetration ability of the BBB |
